Test results: patent US20110212120A1, “Ykur polynucleotides and polypeptides” (VERNALIS (OXFORD) LIMITED, priority 2002, published 2011)

Target: T1, YkuR protein (Bacillus subtilis, UniProt O34916)
T1 construct: the full length ykuR gene product could be separated from internally digested gene product; made in house; host or cells: E. coli BL21 (pET24a)
Assay: YkuR surrogate fluorometric assay (sodium hippurate substrate)
Assay type: biochemical, B. subtilis
Details: purified YkuR protein expressed in E. coli; phenanthroline added at increasing concentrations; FIG. 3
Protocol: A fluorometric assay for YkuR and its homologues has been developed using sodium hippurate (benzoyl glycine) as a substrate. Cleavage by YkuR releases free glycine which can be detected using F-phthaldialdehyde. The assay is performed in a total volume of 100 Fl per well in black 96 well microtitre plates. 40 Fl of YkuR protein 20 Fg/ml in 10 mM Hepes pH 6.8 containing 0.5 mM dithiothreitol and 10 mM potassium chloride) is added to the appropriate wells of a 96-well plate. Appropriate concentrations of test compounds dissolved in 20 Fl of 100% DMSO are added, followed by 40 Fl of hippuric acid (250 mM in 50 mM Hepes pH 6.8 containing 0.05% Brij 35). Control wells lack either enzyme or test compound. The reactions are incubated for 1 hour at 37 EC. Following incubation 100 Fl of OPA Reagent (20 mM F-phthaldialdehyde in 50 mM borate buffer pH 9.5 containing 0.1% $-mercaptoethanol) is added to each well. The fluorescence at 460 nm is measure with an SLT Fluostar fluorometer using 355 nm excitation.
Assay using purified YkuR protein expressed in E. coli as described above. Phenanthroline, a known inhibitor of metalloprotease enzyme activity, was added at increasing concentrations to inhibit metalloenzyme activity.

T1 sequence (O34916 whole entry): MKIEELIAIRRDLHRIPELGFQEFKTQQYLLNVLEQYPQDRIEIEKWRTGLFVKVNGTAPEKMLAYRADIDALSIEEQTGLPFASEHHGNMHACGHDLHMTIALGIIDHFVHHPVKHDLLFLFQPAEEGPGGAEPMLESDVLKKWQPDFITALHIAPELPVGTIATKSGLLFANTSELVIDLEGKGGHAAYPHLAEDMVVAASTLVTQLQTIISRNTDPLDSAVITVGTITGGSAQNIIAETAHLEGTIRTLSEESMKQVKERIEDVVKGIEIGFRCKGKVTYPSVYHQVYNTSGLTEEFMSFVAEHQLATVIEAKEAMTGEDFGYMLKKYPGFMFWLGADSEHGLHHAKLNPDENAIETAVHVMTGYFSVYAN

Compound: c1cnc2c(c1)ccc1cccnc12 [Phenanthroline]
- IC50: 96 µM
